Where a name gives a salt, the structure may show the parent alone.
System: 60 cancer cell lines (NCI 60 cancer cell line series)
Assay: NCI-DTP in vitro cancer screen, sulforhodamine B (SRB) growth inhibition, 48 hour exposure
Format: cell-based, human
Design: key to sensitivity class Ovarian OVCAR-8 CL6005 / sensitivity class Ovarian SK-OV-3 CL6011 / sensitivity class Prostate DU-145 CL11003 / sensitivity class NSCLC NCI-H522 CL1003 / sensitivity class Ovarian IGROV1 CL6010 / sensitivity class Ovarian OVCAR-4 CL6002 / sensitivity class Prostate PC-3(I) CL11001 / sensitivity class Renal A498 CL9013 / sensitivity class Renal SN12C CL9008: sensitivity class: 1 = Low, 2 = Medium, 3 = High
Procedure: Cancer Cell Line Preparation. Sixty cancer cell lines were obtained from the National Cancer Institute Developmental Therapeutics Program (NCI-DTP). Procedures for growing cells and testing compounds have been described previously (Scudiero et al., Cancer Res. 1988, 48:4827-4833; Stinson et al., Anticancer Res.; Myers et al., Electrophoresis 1997, 18:647-653). Cells are plated on day 0 at a density individualized for each cell line so that they will generally be sub-confluent at the end of the assay period. On day 1, a compound is added in the format for a duplicate-well, 5-dose, ten-fold interval dose response study.
No-drug, no-cell and no-growth controls are included. On day 3 the cells are processed for staining with sulforhodamine B (SRB), which reflects the amount of cell mass present at the end of a 48 hour exposure to the test agent. From dose response curves based on the SRB data, various parameters can be determined. The one used in the present study is the G15o, defined as the concentration of compound required to inhibit growth of the cell line by 50%. More precisely, the quantity used in the calculation to be described is the potency measure -log{GI50}.
Activity database (A). Table IA, consisting of the growth inhibition (GI5o) values for the 60 cell lines and 24 compounds, was created from the NCI-DTP in vitro cancer screen database. This subset of compounds was selected from the larger 23,000 compound database available from the DTP. The compounds were selected on the basis of their known mechanism of action and chemical structure. The average potency—log{GI50} was extracted from the comma-delimited text files available through the Web at http://www.nci.nih.gov/intra/lmp/jnwbio.htmrl. Subsequently, these log{GI5o} values were inspected manually and classified as indicating either Low, Medium or High sensitivity to each compound.

CC[C@]1(O)C[C@@H]2CN(CCc3c([nH]c4ccccc34)[C@@](C(=O)OC)(c3cc4c(cc3OC)N(C)[C@H]3[C@@](O)(C(=O)OC)[C@H](OC(C)=O)[C@]5(CC)C=CCN6CC[C@]43[C@@H]65)C2)C1 [Vinblastine sulfate]
classification of cell line as Low(1), Medium(2) or High(3) sensitivity to compound (CNS SF-539 CL12016): 2 | classification of cell line as Low(1), Medium(2) or High(3) sensitivity to compound (CNS SNB-19 (CL12002)): 2 | classification of cell line as Low(1), Medium(2) or High(3) sensitivity to compound (CNS U251(I) CL12009): 2 | classification of cell line as Low(1), Medium(2) or High(3) sensitivity to compound (Colon HCC-2998 (CL4002)): 2 | classification of cell line as Low(1), Medium(2) or High(3) sensitivity to compound (Colon HCT-15 CL4015): 1 | classification of cell line as Low(1), Medium(2) or High(3) sensitivity to compound (Colon KM12 (CL4017)): 2 | classification of cell line as Low(1), Medium(2) or High(3) sensitivity to compound (Colon SW-620 (CL4009)): 2 | classification of cell line as Low(1), Medium(2) or High(3) sensitivity to compound (Leukemia CCRF-CEM(I) (CL7003)): 2 | classification of cell line as Low(1), Medium(2) or High(3) sensitivity to compound (Leukemia HL-60(I) (CL7008)): 3 | classification of cell line as Low(1), Medium(2) or High(3) sensitivity to compound (Leukemia MOLT-4 (CL7006)): 2 | classification of cell line as Low(1), Medium(2) or High(3) sensitivity to compound (Leukemia SR CL7019): 3 | classification of cell line as Low(1), Medium(2) or High(3) sensitivity to compound (Melanoma M14 (CL10014)): 2 | classification of cell line as Low(1), Medium(2) or High(3) sensitivity to compound (Melanoma MALME-3M CL10002): 2 | classification of cell line as Low(1), Medium(2) or High(3) sensitivity to compound (Melanoma SK-MEL-2 (CL10005)): 2 | classification of cell line as Low(1), Medium(2) or High(3) sensitivity to compound (Melanoma SK-MEL-5 (CL10007)): 3 | classification of cell line as Low(1), Medium(2) or High(3) sensitivity to compound (Melanoma SK-MEL-28 (CL10008)): 2 | classification of cell line as Low(1), Medium(2) or High(3) sensitivity to compound (Melanoma UACC-62 (CL10020)): 3 | classification of cell line as Low(1), Medium(2) or High(3) sensitivity to compound (NSCLC A549/ATCC (CL1004)): 2 | classification of cell line as Low(1), Medium(2) or High(3) sensitivity to compound (NSCLC EKVX (CL1008)): 1 | classification of cell line as Low(1), Medium(2) or High(3) sensitivity to compound (NSCLC HOP-62 (CL1026)): 2 | classification of cell line as Low(1), Medium(2) or High(3) sensitivity to compound (NSCLC HOP-92 (CL1029)): 2 | classification of cell line as Low(1), Medium(2) or High(3) sensitivity to compound (NSCLC NCI-H226 CL1013): 2 | sensitivity class NSCLC NCI-H23(I) CL1001 (cell line NSCLC NCI-H23(I), CL1001): 2 | sensitivity class NSCLC NCI-H332M CL1017 (cell line NSCLC NCI-H332M, CL1017): 2 | sensitivity class NSCLC NCI-H460 CL1021 (cell line NSCLC NCI-H460, CL1021): 2 | sensitivity class NSCLC NCI-H522 CL1003 (cell line NSCLC NCI-H522, CL1003): 3 | sensitivity class Ovarian IGROV1 CL6010 (cell line Ovarian IGROV1, CL6010): 2 | sensitivity class Ovarian OVCAR-3 CL6001 (cell line Ovarian OVCAR-3, CL6001): 3 | sensitivity class Ovarian OVCAR-8 CL6005 (cell line Ovarian OVCAR-8, CL6005): 2 | sensitivity class Ovarian SK-OV-3 CL6011 (cell line Ovarian SK-OV-3, CL6011): 2 | sensitivity class Renal 786-O CL9018 (cell line Renal 786-O, CL9018): 2 | sensitivity class Renal CAKI-1 CL9015 (cell line Renal CAKI-1, CL9015): 2 | sensitivity class Renal RXF-393 CL9016 (cell line Renal RXF-393, CL9016): 2 | sensitivity class Renal SN12C CL9008 (cell line Renal SN12C, CL9008): 2 | sensitivity class Renal TK10 CL9024 (cell line Renal TK10, CL9024): 1 | sensitivity class Renal UO-31 CL9004 (cell line Renal UO-31, CL9004): 1

Source: US20020051978A1, “Methods and compositions for the identification, assessment, prevention and therapy of human cancers” (priority 2000, published 2002)
